Assay results: patent US12448363B2, “Kinase inhibitors” (Vidya Therapeutics, Inc., priority 2020, dated 2025)

What was measured:
BTK = BTK (Homo sapiens, UniProt Q06187); assay: Assay to determine BTK inactivation rate in human whole blood (ELISA of unoccupied BTK); assay type: cell-based; parameters: Human whole blood is obtained from StemExpress; tissue StemExpress; host or cells: human whole blood; conditions: 37° C., 5, 15, 30, 60 minutes; for kinact/KI: read-out: BTK hWB Kinact/Ki
Procedure: Human Whole Blood Compound Treatment and Lysis
Human whole blood is obtained from StemExpress and kept at ambient temperature until the time of the experiment. […] This is prepared fresh each experimental day. […] Compounds are reconstituted to stocks of 10 mM and are diluted in two-fold serial dilutions to generate an 8-point curve in DMSO, with the last point being DMSO only, creating a 100× dilution series. A working 10× dilution series is created using 1.0 μL of the prepared DMSO titration, 100×, into […] 1×PBS in order to keep the DMSO constant. The human whole blood is added in the volume of 225 μL per well in a new 96w v-bottom plate, where one column of eight wells is sufficient for testing one compound. For compound treatment, 25 μL of 10× dilution series in PBS is added to the 225 μL whole blood, followed by briefly pipetting up and down twice. The plates are covered with lids and incubated at 37° C. for 5, 15, 30, 60 minutes. At each timepoint, 30 μL of treated blood is pulled from each column and added to preloaded collection plates that contain 30 μL of supplemented lysis buffer and mixed briefly. The collected and lysed samples shake on rotator for 60 minutes at room temperature. These samples are used fresh for detection via ELISA, and remaining sample is frozen at −80° C. if a repeat is necessary.
ELISA: Determining Amount of Unoccupied BTK
All streptavidin pre-coated plates (R&D Systems, #CP004) are brought to room temperature while samples are lysing. Assay Buffer 1, 1×PBS+0.05% Tween 20+1% BSA is prepared and stored at 4° C. when not in use. Using this Assay Buffer, assay buffer+1× protease/phosphatase inhibitor cocktail (PICs) is prepared in the amount needed for all samples. Assay Buffer+PICs in the volume of 90 μL/well is added to the ELISA plate. Lysed blood sample (10 μL) is added to the ELISA plate. BTK recombinant protein dilutions are prepared in assay buffer+PICS for use as a μM). The standard is loaded into the ELISA plate at 100 μL/well, in duplicate. These samples and standards remain in the plate, sealed, overnight at 4° C. The following day, the plate is washed four times with 1× Wash Buffer (1×PBS+0.05% Tween 20) using a plate washer. The plate is inverted to expel all fluid each time and blotted on clean paper towels to remove remaining liquid. Assay Buffer 2 is prepared (1×PBS+0.05% Tween 20+0.05% BSA) and kept at 4° C. when not in use. […] Diluted a-BTK antibody is added at 100 μl/well. The plate is covered with adhesive film and incubated for 90 minutes at room temperature. The plate is washed four times with 1× Wash Buffer (1×PBS+0.05% Tween 20) using a plate washer. The plate is inverted to expel all fluid each time and blotted on clean paper towels to remove remaining liquid. […] The diluted antibody is added at 100 μl/well. The plate is covered with adhesive film and incubated for one hour at room temperature. The plate is washed four times with 1× Wash Buffer using a plate washer. The plate is inverted to expel all fluid each time and blotted on clean paper towels to remove remaining liquid. […] The plate is incubated at room temperature in the dark for −5-10 minutes. The reaction is stopped by adding 50 μl/well 2N sulfuric acid (H2SO4) (R&D Systems, #DY994). The plate is read in a plate reader at the wavelengths […] and 570 nm (correction wavelength). Using Graphpad Prism, an XY table+graph is created, listing 0-60 minutes as X axis and concentration as Y axis. A One Phase Decay model fit is applied to the data. Checking Results table, the K values are obtained and new XY table+graph are created. Concentration is assigned to the X axis and K values from first analysis are entered. The Michaelis-Menten equation is applied to the data.

[1] = tested on: BTK Activity in RAMOS B Cells; assay: Assay to determine BTK activity in RAMOS B cells (anti-IgM, FLIPR Calcium 6); assay type: cell-based; conditions: EC80 anti-IgM, FLIPR calcium read
How it was run: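 Ramos B cells were loaded with Calcium 6 dye containing 5 mM probenecid (2 h at 37 °C, then 15 min at 25 °C) and exposed to compound for 60 min at 25 °C. Anti-IgM was then added from a 4×EC80 stock, and calcium flux was recorded by FLIPR for 160 s; IC50 was derived.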

Sequence of BTK (Q06187 whole entry): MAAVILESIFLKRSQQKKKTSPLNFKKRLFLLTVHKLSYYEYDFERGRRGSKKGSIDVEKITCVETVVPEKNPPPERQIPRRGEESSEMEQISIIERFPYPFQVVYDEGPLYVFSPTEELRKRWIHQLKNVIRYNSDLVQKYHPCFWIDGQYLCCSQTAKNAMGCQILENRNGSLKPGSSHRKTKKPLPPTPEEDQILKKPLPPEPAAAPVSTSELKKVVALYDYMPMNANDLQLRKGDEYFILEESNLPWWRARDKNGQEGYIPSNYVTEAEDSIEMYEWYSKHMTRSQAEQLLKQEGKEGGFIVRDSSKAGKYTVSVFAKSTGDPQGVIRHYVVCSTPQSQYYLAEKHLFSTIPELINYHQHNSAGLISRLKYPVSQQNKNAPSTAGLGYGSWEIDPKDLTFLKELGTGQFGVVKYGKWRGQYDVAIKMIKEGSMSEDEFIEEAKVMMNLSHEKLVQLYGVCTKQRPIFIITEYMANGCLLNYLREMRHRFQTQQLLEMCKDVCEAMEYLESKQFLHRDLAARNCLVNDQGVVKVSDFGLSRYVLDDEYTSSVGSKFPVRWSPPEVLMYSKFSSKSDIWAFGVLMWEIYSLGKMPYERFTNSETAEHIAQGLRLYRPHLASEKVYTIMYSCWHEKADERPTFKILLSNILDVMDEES

| kinact/KI (BTK) [M⁻¹ s⁻¹] | IC50 ([1]; Homo sapiens, Ramos) [µM] | BTK hWB Kinact/Ki (BTK) | IC50 [1] [µM] | Structure (SMILES) |
| --- | --- | --- | --- | --- |
|  |  | C (a Kinact/Ki<1×10^−4 nM^−1 min^−1) | 0.01 to 0.1 | C=CC(=O)N1CCC2CCN(c3c(F)cc(C(N)=O)c4[nH]c(C)c(C)c34)CC21 (single isomer, unassigned) [Compound 32b, 4-(1-acryloyloctahydro-6H-pyrrolo[2,3-c]pyridin-6-yl)-5-fluoro-2,3-dimethyl-1H-indole-7-carboxamide] |
| > 16700 | < 0.01 |  |  | CC#CC(=O)N[C@H]1C[C@@H](F)CN(c2c(F)cc(C(N)=O)c3[nH]c(C)c(C)c23)C1 [Compound 33, 4-((3S,5R)-3-(but-2-ynamido)-5-fluoropiperidin-1-yl)-5-fluoro-2,3-dimethyl-1H-indole-7-carboxamide] |
| < 1670 | 0.01 to 0.1 |  |  | C=CC(=O)N1CCC2CCN(c3c(F)cc(C(N)=O)c4[nH]c(C)c(Cl)c34)CC21 (single isomer, unassigned) [Compound 29a, 4-(1-acryloyloctahydro-6H-pyrrolo[2,3-c]pyridin-6-yl)-3-chloro-5-fluoro-2-methyl-1H-indole-7-carboxamide] |
| < 1670 | 0.01 to 0.1 |  |  | CC#CC(=O)N1CCCC2CN(c3c(F)cc(C(N)=O)c4[nH]c(C)c(Cl)c34)CC21 (stereo not shown) [Compound 40, 4-(1-(but-2-ynoyl)octahydro-6H-pyrrolo[3,4-b]pyridin-6-yl)-3-chloro-5-fluoro-2-methyl-1H-indole-7-carboxamide] |
| > 16700 | < 0.01 |  |  | CC#CC(=O)N[C@H]1C[C@H](F)CN(c2c(F)cc(C(N)=O)c3[nH]c(C)c(C)c23)C1 [Compound 35, 4-((3S,5S)-3-(but-2-ynamido)-5-fluoropiperidin-1-yl)-5-fluoro-2,3-dimethyl-1H-indole-7-carboxamide] |

Further lines, the compound ahead of its results:

| Structure (SMILES) | kinact/KI (BTK) [M⁻¹ s⁻¹] | IC50 ([1]; Homo sapiens, Ramos) [µM] | BTK hWB Kinact/Ki (BTK) | IC50 [1] [µM] |
| --- | --- | --- | --- | --- |
| C=CC(=O)N1CCC=C(c2c(F)cc(C(N)=O)c3[nH]c(C)c(Cl)c23)C1 [Compound 1, 4-(1-acryloyl-1,2,5,6-tetrahydropyridin-3-yl)-3-chloro-5-fluoro-2-methyl-1H-indole-7-carboxamide] | > 16700 | < 0.01 |  |  |
| C=CC(=O)N1CCC[C@@H](c2c(F)cc(C(N)=O)c3[nH]c(C)c(Cl)c23)C1 [Compound 2a, (S)-4-(1-acryloylpiperidin-3-yl)-3-chloro-5-fluoro-2-methyl-1H-indole-7-carboxamide] | > 16700 | < 0.01 |  |  |
| C=CC(=O)N1CCC[C@@H](c2c(F)c(F)c(C(N)=O)c3[nH]c(C)c(Cl)c23)C1 [Compound 16, (S)-4-(1-acryloylpiperidin-3-yl)-3-chloro-5,6-difluoro-2-methyl-1H-indole-7-carboxamide] | > 16700 | < 0.01 |  |  |
| C=CC(=O)N1CCc2c(-c3c(F)cc(C(N)=O)c4[nH]c(C)c(Cl)c34)cccc2C1C (racemic) [Compound 22a, 4-(2-acryloyl-1-methyl-1,2,3,4-tetrahydroisoquinolin-5-yl)-3-chloro-5-fluoro-2-methyl-1H-indole-7-carboxamide] | 1670 to 16700 | 0.01 to 0.1 |  |  |
| C=CC(=O)N1CCC[C@@H](c2c(F)c(F)c(C(N)=O)c3[nH]c(C)c(F)c23)C1 [Compound 6b, (S)-4-(1-acryloylpiperidin-3-yl)-3,5,6-trifluoro-2-methyl-1H-indole-7-carboxamide] | > 16700 | < 0.01 |  |  |
| C=CC(=O)N1CCc2c(cccc2-c2c(F)cc(C(N)=O)c3[nH]c(C)c(Cl)c23)C1 (single isomer, unassigned) [Compound 20b] | 1670 to 16700 |  |  | < 0.01 |
| CC#CC(=O)N[C@H]1C[C@@H](F)CN(c2c(F)cc(C(N)=O)c3[nH]c(C)c(Cl)c23)C1 [Compound 27, 4-((3S,5R)-3-(but-2-ynamido)-5-fluoropiperidin-1-yl)-3-chloro-5-fluoro-2-methyl-1H-indole-7-carboxamide] | 1670 to 16700 | < 0.01 |  |  |
| C=CC(=O)N1CCC2CCN(c3c(F)cc(C(N)=O)c4[nH]c(C)c(Cl)c34)CC21 (racemic) [Compound 29, 4-(1-acryloyloctahydro-6H-pyrrolo[2,3-c]pyridin-6-yl)-3-chloro-5-fluoro-2-methyl-1H-indole-7-carboxamide] | 1670 to 16700 | 0.01 to 0.1 |  |  |
| C=CC(=O)N1CCC[C@H](c2c(F)c(F)c(C(N)=O)c3[nH]c(C)c(F)c23)C1 [Compound 6a, (R)-4-(1-acryloylpiperidin-3-yl)-3,5,6-trifluoro-2-methyl-1H-indole-7-carboxamide] | > 16700 | < 0.01 |  |  |
